Laboratory results taken from patent publication US8841281B2, “Transition metal complexes of amino acids and related ligands and their use as catalysts, anti-microbials, and anti-cancer agents” (Virginia Tech Intellectual Properties, Inc., priority 2011, dated 2014).
Like-named read-outs stand apart in the source and are kept apart here.

Experiments:
[1] = system: methicillin-resistant Staphylococcus aureus (MRSA); assay: 96 well plate dilution test, MIC against MRSA; type: cell-based; settings: Pd(AA)2 complexes against MRSA
Procedure: Biological activities of complexes of Formula 1 were tested against various strains of bacteria using the following general procedure. It is noted that complexes of Formula 2 and Formula 3 were tested using the same procedure. Generally, 96 well plate dilution tests were performed using a 96-well plate consisting of 8 rows and 12 columns. Each well is charged with the test organism in the appropriate growth medium. The test complex is also dissolved in the test medium and the first well is charged with sufficient complex solution to provide a concentration of 250 ug/mL. […] Well 12 is used as a control with no test complex. The plates are incubated for 48 hrs in the case of bacteria and 4-5 days in the case of mycobacteria. The wells are read using a spectrophotometer measuring turbidity at 540 nm. A high optical density indicates significant cell growth while a low optical density indicates significant inhibition. All results reported are normalized in terms of inhibition of cell growth and reported as MICs.
Biological activity is expressed in terms of the Minimum Inhibitory Concentration (MIC) in units of micrograms per mL. The MIC is the lowest concentration of the complex at which full inhibition of organism growth is observed.
Octahedral iridium(III) complexes of Formula 2 were tested against various strains of bacteria using the procedure described above for Formula 1. Biological activity is expressed in terms of the MIC in units of micrograms per mL.

MRSA = assay: Activity against MRSA strains (Table VIIIB, compounds used alone); type: cell-based, Staphylococcus aureus; settings: ligand compound used alone, not complexed
[2] = system: Mycobacterium smegmatis strain mc^2155; type: cell-based
[3] = system: Mycobacterium avium strain A5
[4] = system: Mycobacterium intracellulare
[5] = system: Mycobacterium abscessus strain AAy-P-1
[6] = system: Mycobacterium marinum ATCC 927
[7] = system: Mycobacterium chelonae strain EO-P-1
[8] = system: mycobacteria, Staphylococcus aureus and methicillin-resistant S. aureus (MRSA); settings: among Ir, Ru, Rh L-α-amino acid complexes
[9] = system: Mycobacterium bovis strain BCG; type: cell-based
M. smegmatis = assay: 96 well plate dilution test, MIC against M. smegmatis; type: cell-based
M. chelonae = assay: 96 well plate dilution test, MIC against M. chelonae; type: cell-based
M. abscessus = assay: 96 well plate dilution test, MIC against M. abscessus; type: cell-based
[10] = Ruthenium piano stool complexes

## O=C([O][Pd][O]C(=O)C1CCCN1)C1CCCN1 (stereo not shown) [Pd(Pro)2, bis-prolinato palladium(II)]
[1]
  MIC: 7.5 µg/mL

## CN(C)CCN [N,N-dimethylethylenediamine, reference compound]
MRSA
  activity against MRSA when used alone: not active

## Cp*IrCl (Glycine) [1 (L-gly)]
[2]
  Minimal Inhibitory Concentration (MIC) M. smegmatis: 61 µg/mL
[3]
  Minimal Inhibitory Concentration (MIC) M. avium: >250 µg/mL
[4]
  Minimal Inhibitory Concentration (MIC) M. intracellulare: >250 µg/mL
[5]
  Minimal Inhibitory Concentration (MIC) M. abscessus: 125 µg/mL
[6]
  Minimal Inhibitory Concentration (MIC) M. marinum: >250 µg/mL
[7]
  Minimal Inhibitory Concentration (MIC) M. chelonae: 125 µg/mL

## [Ir(COD)(ethylenediamine)]Cl [3 (en)]
[2]
  Minimal Inhibitory Concentration (MIC) M. smegmatis: 125 µg/mL
Gram positive MRSA; gram positive MRSA
  MIC: 8.1 µg/mL
[3]
  Minimal Inhibitory Concentration (MIC) M. avium: >250 µg/mL
[4]
  Minimal Inhibitory Concentration (MIC) M. intracellulare: 61 µg/mL
[5]
  Minimal Inhibitory Concentration (MIC) M. abscessus: 61 µg/mL
[6]
  Minimal Inhibitory Concentration (MIC) M. marinum: >251 µg/mL
[7]
  Minimal Inhibitory Concentration (MIC) M. chelonae: 61 µg/mL

## Napthalenediamine [reference compound]
MRSA
  activity against MRSA when used alone: active

## palladium(II) bis-valine [Pd(Val)2]
[1]
  MIC: 9.0 µg/mL

## Cp*IrCl (L-Phenylalanine) [1 (L-phe)]
[8]
  relative anti-mycobacterial / antibiotic activity: highest activity

## CC[C@@H](CO)NCCN[C@@H](CC)CO [ethambutol, reference compound]
MRSA
  activity against MRSA when used alone: not active

## [Ir(COD)(N-methylethylenediamine)]Cl [3 (N-methyl en)]
[2]
  Minimal Inhibitory Concentration (MIC) M. smegmatis: >250 µg/mL
[9]
  Minimal Inhibitory Concentration (MIC) M. bovis: >250 µg/mL
Gram positive MRSA
  MIC: 16.2 µg/mL
[3]
  Minimal Inhibitory Concentration (MIC) M. avium: >250 µg/mL
[4]
  Minimal Inhibitory Concentration (MIC) M. intracellulare: >250 µg/mL
[5]
  Minimal Inhibitory Concentration (MIC) M. abscessus: >250 µg/mL
[6]
  Minimal Inhibitory Concentration (MIC) M. marinum: >250 µg/mL
[7]
  Minimal Inhibitory Concentration (MIC) M. chelonae: >250 µg/mL

## [Ir(COD)(ethambutol)]Cl [3 (EMB)]
[2]
  Minimal Inhibitory Concentration (MIC) M. smegmatis: 61 µg/mL
Gram positive MRSA; gram positive MRSA
  MIC: 8.1 µg/mL
[3]
  Minimal Inhibitory Concentration (MIC) M. avium: >250 µg/mL
[4]
  Minimal Inhibitory Concentration (MIC) M. intracellulare: >250 µg/mL
[5]
  Minimal Inhibitory Concentration (MIC) M. abscessus: 61 µg/mL
[6]
  Minimal Inhibitory Concentration (MIC) M. marinum: >250 µg/mL
[7]
  Minimal Inhibitory Concentration (MIC) M. chelonae: 61 µg/mL

## Cp*IrCl (L-Alanine) [1 (L-ala)]
M. smegmatis; Iridium piano stool complexes
  M. smegmatis MIC: 7.5 µg/mL
M. chelonae
  M. chelonae MIC: 7.5 µg/mL
M. abscessus; Iridium piano stool complexes
  M. abscessus MIC: 7.5 µg/mL
[2]
  Minimal Inhibitory Concentration (MIC) M. smegmatis: 15 µg/mL
[9]
  Minimal Inhibitory Concentration (MIC) M. bovis: 31 µg/mL
[3]
  Minimal Inhibitory Concentration (MIC) M. avium: >250 µg/mL
[4]
  Minimal Inhibitory Concentration (MIC) M. intracellulare: 61 µg/mL
[5]
  Minimal Inhibitory Concentration (MIC) M. abscessus: 31 µg/mL
[6]
  Minimal Inhibitory Concentration (MIC) M. marinum: >250 µg/mL
[7]
  Minimal Inhibitory Concentration (MIC) M. chelonae: 61 µg/mL

## Cp*IrCl (L-Trans-4-Hydroxyproline) [1 (L-hyp)]
[2]
  Minimal Inhibitory Concentration (MIC) M. smegmatis: >250 µg/mL
[3]
  Minimal Inhibitory Concentration (MIC) M. avium: >250 µg/mL

## CC(N)C(=O)[O-].CC(N)C(=O)[O-].[Pd+2] (stereo not shown) [Pd(Ala)2]
[1]
  MIC: inactive

## Cp*IrCl (L-Leucine) [1 (L-leu)]
M. smegmatis; Iridium piano stool complexes
  M. smegmatis MIC: 3.9 µg/mL
M. chelonae
  M. chelonae MIC: 3.9 µg/mL
[2]
  Minimal Inhibitory Concentration (MIC) M. smegmatis: 32 µg/mL
[3]
  Minimal Inhibitory Concentration (MIC) M. avium: >250 µg/mL
[4]
  Minimal Inhibitory Concentration (MIC) M. intracellulare: 32 µg/mL
[5]
  Minimal Inhibitory Concentration (MIC) M. abscessus: 32 µg/mL
[6]
  Minimal Inhibitory Concentration (MIC) M. marinum: >250 µg/mL
[7]
  Minimal Inhibitory Concentration (MIC) M. chelonae: 32 µg/mL

## Cp*IrCl (L-Serine) [1 (L-ser)]
M. chelonae
  M. chelonae MIC: Inactive
[2]
  Minimal Inhibitory Concentration (MIC) M. smegmatis: >250 µg/mL
[3]
  Minimal Inhibitory Concentration (MIC) M. avium: >250 µg/mL

## [Ir(COD)(N,N-dimethylethylenediamine)]Cl [3 (N,N-methyl en)]
[2]
  Minimal Inhibitory Concentration (MIC) M. smegmatis: >250 µg/mL
[9]
  Minimal Inhibitory Concentration (MIC) M. bovis: >250 µg/mL
Gram positive MRSA
  MIC: >250 µg/mL
[3]
  Minimal Inhibitory Concentration (MIC) M. avium: >250 µg/mL
[4]
  Minimal Inhibitory Concentration (MIC) M. intracellulare: >250 µg/mL
[5]
  Minimal Inhibitory Concentration (MIC) M. abscessus: >250 µg/mL
[6]
  Minimal Inhibitory Concentration (MIC) M. marinum: >250 µg/mL
[7]
  Minimal Inhibitory Concentration (MIC) M. chelonae: >250 µg/mL

## CNCCN [N-methylethylenediamine, reference compound]
MRSA
  activity against MRSA when used alone: not active

## Cp*IrCl (L-Valine) [1 (L-val)]
M. smegmatis; Iridium piano stool complexes
  M. smegmatis MIC: 3.9 µg/mL
M. chelonae
  M. chelonae MIC: 7.5 µg/mL
M. abscessus; Iridium piano stool complexes
  M. abscessus MIC: 7.5 µg/mL
[2]
  Minimal Inhibitory Concentration (MIC) M. smegmatis: 17 µg/mL
[9]
  Minimal Inhibitory Concentration (MIC) M. bovis: 31 µg/mL
[3]
  Minimal Inhibitory Concentration (MIC) M. avium: >250 µg/mL
[4]
  Minimal Inhibitory Concentration (MIC) M. intracellulare: >250 µg/mL
[5]
  Minimal Inhibitory Concentration (MIC) M. abscessus: 61 µg/mL
[6]
  Minimal Inhibitory Concentration (MIC) M. marinum: >250 µg/mL
[7]
  Minimal Inhibitory Concentration (MIC) M. chelonae: 31 µg/mL

## Cc1c(C)c(C)[c-](C)c1C.NC(Cc1ccc(O)cc1)C(=O)[O-].[Cl-].[Ir+3] [Ir(Cp*)L-Tyr]
M. chelonae; Iridium piano stool complexes
  M. chelonae MIC: Inactive

## Cp*IrCl (D-Proline) [1 (D-pro)]
[2]
  Minimal Inhibitory Concentration (MIC) M. smegmatis: >250 µg/mL
[9]
  Minimal Inhibitory Concentration (MIC) M. bovis: >250 µg/mL
[3]
  Minimal Inhibitory Concentration (MIC) M. avium: >250 µg/mL
[4]
  Minimal Inhibitory Concentration (MIC) M. intracellulare: >250 µg/mL
[5]
  Minimal Inhibitory Concentration (MIC) M. abscessus: >250 µg/mL
[6]
  Minimal Inhibitory Concentration (MIC) M. marinum: >250 µg/mL
[7]
  Minimal Inhibitory Concentration (MIC) M. chelonae: >250 µg/mL

## NC(CO)C(=O)[O-].NC(CO)C(=O)[O-].[Pd+2] (stereo not shown) [Pd(Ser)2]
[1]
  MIC: inactive

## Cp*IrCl (L-Phenylglycine) [1 (L-phengly)]
[2]
  Minimal Inhibitory Concentration (MIC) M. smegmatis: 5 µg/mL
[9]
  Minimal Inhibitory Concentration (MIC) M. bovis: 10 µg/mL
[3]
  Minimal Inhibitory Concentration (MIC) M. avium: >250 µg/mL
[4]
  Minimal Inhibitory Concentration (MIC) M. intracellulare: 15 µg/mL
[5]
  Minimal Inhibitory Concentration (MIC) M. abscessus: 31 µg/mL
[6]
  Minimal Inhibitory Concentration (MIC) M. marinum: >250 µg/mL
[7]
  Minimal Inhibitory Concentration (MIC) M. chelonae: 10 µg/mL
[8]
  relative anti-mycobacterial / antibiotic activity: highest activity

## CC(C)CC(N)C(=O)[O-].Cc1ccc(C(C)C)cc1.[Cl-].[Ru+2] [Ru(p-cymene)leu]
M. smegmatis; [10]
  M. smegmatis MIC: 3.9 µg/mL
M. chelonae; [10]
  M. chelonae MIC: 7.5 µg/mL
M. abscessus; [10]
  M. abscessus MIC: 7.5 µg/mL

## CC(N)C(=O)[O][Ru][Cl].Cc1ccc(C(C)C)cc1 [Ru(p-cymene)ala]
M. smegmatis; [10]
  M. smegmatis MIC: 7.5 µg/mL
M. chelonae; [10]
  M. chelonae MIC: 7.5 µg/mL
M. abscessus; [10]
  M. abscessus MIC: 7.5 µg/mL

## CC(C)C(N)C(=O)[O-].Cc1ccc(C(C)C)cc1.[Cl-].[Ru+2] [Ru(p-cymene)Val]
M. smegmatis; [10]
  M. smegmatis MIC: 7.5 µg/mL
M. chelonae; [10]
  M. chelonae MIC: 7.5 µg/mL
M. abscessus; [10]
  M. abscessus MIC: 7.5 µg/mL

## Cp*IrCl (N-methyl-Glycine) [1 (L-N-methylgly)]
[2]
  Minimal Inhibitory Concentration (MIC) M. smegmatis: >250 µg/mL
[3]
  Minimal Inhibitory Concentration (MIC) M. avium: >250 µg/mL

## NCCN [ethylenediamine, reference compound]
MRSA
  activity against MRSA when used alone: not active
